# Measurements taken from ChEMBL document CHEMBL5291721, “A preclinical secondary pharmacology resource illuminates target-adverse drug reaction associations of marketed drugs” (Nat Commun, 2023).
# Assays:
# [1] = target: T1, Alpha-2B adrenergic receptor (Homo sapiens, UniProt P18089)
# T1 sequence (P18089 whole entry): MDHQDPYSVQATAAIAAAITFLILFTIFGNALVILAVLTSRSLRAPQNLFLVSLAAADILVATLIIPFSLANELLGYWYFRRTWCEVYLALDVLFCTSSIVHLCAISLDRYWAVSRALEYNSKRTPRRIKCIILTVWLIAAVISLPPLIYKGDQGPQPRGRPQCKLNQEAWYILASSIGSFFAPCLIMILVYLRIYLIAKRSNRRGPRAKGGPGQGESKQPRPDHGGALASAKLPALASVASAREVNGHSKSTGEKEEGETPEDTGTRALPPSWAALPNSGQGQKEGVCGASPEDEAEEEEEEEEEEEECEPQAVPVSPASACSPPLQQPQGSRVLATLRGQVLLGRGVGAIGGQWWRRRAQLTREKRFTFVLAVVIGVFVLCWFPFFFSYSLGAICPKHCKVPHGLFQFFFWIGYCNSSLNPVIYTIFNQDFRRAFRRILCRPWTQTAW
# [2] = target: 5-hydroxytryptamine receptor 2A (Homo sapiens, UniProt P28223); assay type: functional, cell-based
# Sequence of 5-hydroxytryptamine receptor 2A (P28223 whole entry): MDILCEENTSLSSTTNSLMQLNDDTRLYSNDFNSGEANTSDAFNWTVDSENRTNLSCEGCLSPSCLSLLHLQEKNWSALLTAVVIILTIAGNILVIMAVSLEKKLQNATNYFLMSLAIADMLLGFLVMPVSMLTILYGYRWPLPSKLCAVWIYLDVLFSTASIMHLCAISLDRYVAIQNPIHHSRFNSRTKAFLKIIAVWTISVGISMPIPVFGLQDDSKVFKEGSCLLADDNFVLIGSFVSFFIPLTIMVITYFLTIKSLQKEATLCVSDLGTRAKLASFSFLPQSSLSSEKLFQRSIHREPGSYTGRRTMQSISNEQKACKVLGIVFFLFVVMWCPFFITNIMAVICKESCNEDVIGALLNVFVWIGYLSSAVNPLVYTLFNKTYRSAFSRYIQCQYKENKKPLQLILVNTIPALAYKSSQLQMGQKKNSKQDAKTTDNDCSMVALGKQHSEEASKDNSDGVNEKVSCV
# [3] = target: Gamma-aminobutyric acid receptor subunit alpha-1/alpha-2/beta-2/gamma-2 (Homo sapiens, UniProt P14867+P18507+P47869+P47870); assay type: functional, cell-based
# Sequence of Gamma-aminobutyric acid receptor subunit alpha-1/alpha-2/beta-2/gamma-2 (P14867 whole entry): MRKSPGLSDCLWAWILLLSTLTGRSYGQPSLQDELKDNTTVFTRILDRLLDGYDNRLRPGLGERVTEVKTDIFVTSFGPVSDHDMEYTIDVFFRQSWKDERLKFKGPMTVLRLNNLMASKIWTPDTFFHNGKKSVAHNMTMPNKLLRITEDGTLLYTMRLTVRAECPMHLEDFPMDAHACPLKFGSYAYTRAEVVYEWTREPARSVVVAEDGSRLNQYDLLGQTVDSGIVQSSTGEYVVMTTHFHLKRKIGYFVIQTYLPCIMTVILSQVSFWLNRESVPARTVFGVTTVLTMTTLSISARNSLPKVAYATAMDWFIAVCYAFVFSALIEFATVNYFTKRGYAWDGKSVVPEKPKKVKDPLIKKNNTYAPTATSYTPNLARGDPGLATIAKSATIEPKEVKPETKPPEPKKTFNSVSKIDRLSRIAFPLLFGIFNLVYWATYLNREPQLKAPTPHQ
# Sequence of Gamma-aminobutyric acid receptor subunit alpha-1/alpha-2/beta-2/gamma-2 (P47870 whole entry): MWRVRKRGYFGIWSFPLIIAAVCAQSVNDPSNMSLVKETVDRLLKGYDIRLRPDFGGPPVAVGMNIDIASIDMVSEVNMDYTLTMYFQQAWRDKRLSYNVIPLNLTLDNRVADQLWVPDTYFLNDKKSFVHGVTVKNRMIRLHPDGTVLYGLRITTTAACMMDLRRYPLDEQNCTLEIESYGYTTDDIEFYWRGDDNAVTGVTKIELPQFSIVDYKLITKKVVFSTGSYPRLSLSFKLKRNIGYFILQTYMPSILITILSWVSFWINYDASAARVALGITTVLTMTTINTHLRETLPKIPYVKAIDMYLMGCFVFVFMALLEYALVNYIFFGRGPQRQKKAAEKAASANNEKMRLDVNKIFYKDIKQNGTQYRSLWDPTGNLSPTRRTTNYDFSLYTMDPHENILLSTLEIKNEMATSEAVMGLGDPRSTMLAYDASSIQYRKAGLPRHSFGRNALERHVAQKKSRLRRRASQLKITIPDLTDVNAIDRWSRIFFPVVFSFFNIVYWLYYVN
# Sequence of Gamma-aminobutyric acid receptor subunit alpha-1/alpha-2/beta-2/gamma-2 (P18507 whole entry): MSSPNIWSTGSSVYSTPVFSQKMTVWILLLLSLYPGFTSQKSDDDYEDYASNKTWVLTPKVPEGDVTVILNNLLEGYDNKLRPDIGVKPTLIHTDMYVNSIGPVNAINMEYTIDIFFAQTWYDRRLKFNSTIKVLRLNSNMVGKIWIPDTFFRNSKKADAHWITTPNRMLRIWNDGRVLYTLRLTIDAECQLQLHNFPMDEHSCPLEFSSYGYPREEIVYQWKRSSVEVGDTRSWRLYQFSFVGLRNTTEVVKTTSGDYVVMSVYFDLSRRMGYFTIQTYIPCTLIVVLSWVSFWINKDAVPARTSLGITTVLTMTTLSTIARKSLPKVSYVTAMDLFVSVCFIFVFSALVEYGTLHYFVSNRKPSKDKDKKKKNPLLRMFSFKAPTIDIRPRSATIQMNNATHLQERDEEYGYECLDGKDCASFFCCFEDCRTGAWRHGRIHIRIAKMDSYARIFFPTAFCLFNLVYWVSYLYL
# Sequence of Gamma-aminobutyric acid receptor subunit alpha-1/alpha-2/beta-2/gamma-2 (P47869 whole entry): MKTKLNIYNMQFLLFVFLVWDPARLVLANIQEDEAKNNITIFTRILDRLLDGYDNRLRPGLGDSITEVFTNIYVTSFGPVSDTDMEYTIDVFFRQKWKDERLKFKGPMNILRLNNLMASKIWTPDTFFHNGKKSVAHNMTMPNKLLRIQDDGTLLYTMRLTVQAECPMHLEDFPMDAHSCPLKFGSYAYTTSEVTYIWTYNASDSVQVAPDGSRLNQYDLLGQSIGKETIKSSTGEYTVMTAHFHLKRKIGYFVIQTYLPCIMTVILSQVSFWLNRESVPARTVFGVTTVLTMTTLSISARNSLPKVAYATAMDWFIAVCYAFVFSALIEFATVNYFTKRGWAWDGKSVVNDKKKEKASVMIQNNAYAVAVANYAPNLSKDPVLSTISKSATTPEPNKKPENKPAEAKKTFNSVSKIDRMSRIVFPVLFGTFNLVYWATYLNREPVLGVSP
# [4] = target: T2, Peroxisome proliferator-activated receptor gamma (Homo sapiens, UniProt P37231); assay type: functional
# T2 sequence (P37231 whole entry): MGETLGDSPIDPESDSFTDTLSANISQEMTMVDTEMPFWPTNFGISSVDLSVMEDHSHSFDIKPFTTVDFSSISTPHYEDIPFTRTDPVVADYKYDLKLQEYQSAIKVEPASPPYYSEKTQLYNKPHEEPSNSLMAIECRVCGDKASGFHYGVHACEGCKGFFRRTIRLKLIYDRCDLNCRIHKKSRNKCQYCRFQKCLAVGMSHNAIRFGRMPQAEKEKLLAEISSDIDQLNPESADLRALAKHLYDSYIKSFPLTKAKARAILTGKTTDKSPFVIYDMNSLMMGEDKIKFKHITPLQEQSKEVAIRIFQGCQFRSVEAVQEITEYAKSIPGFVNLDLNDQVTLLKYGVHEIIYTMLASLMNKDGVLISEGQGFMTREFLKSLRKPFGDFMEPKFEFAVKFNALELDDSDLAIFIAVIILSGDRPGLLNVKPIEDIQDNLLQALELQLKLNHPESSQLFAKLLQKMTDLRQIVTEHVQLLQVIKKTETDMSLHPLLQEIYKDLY
# [5] = target: T2, Peroxisome proliferator-activated receptor gamma; assay type: functional; remark: listed apart in the source
# [6] = target: D(1A) dopamine receptor (Homo sapiens, UniProt P21728)
# Sequence of D(1A) dopamine receptor (P21728 whole entry): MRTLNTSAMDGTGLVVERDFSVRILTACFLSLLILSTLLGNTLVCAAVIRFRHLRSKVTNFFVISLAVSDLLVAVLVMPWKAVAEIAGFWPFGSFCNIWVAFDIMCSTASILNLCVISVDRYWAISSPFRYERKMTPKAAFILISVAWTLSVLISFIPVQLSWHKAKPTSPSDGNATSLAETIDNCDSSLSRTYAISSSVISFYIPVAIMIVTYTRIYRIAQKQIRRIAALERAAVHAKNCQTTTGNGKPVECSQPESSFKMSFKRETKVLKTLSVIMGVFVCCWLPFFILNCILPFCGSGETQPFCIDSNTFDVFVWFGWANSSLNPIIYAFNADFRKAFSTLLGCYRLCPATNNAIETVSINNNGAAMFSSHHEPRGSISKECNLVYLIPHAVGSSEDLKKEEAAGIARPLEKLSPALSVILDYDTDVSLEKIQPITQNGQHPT
# [7] = target: T3, Neuropeptide Y receptor type 2 (Homo sapiens, UniProt P49146)
# T3 sequence (P49146 whole entry): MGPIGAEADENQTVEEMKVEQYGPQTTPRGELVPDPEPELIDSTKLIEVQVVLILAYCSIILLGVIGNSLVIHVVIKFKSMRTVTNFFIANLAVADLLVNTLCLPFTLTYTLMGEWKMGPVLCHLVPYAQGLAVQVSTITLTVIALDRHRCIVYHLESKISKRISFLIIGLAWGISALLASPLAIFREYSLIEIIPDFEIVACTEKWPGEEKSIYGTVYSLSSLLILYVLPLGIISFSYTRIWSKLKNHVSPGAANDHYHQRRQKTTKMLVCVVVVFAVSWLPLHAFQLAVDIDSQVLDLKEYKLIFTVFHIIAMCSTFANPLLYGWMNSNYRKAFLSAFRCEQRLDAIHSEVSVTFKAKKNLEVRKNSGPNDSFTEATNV
# [8] = target: Histamine H2 receptor (Homo sapiens, UniProt P25021)
# Sequence of Histamine H2 receptor (P25021 whole entry): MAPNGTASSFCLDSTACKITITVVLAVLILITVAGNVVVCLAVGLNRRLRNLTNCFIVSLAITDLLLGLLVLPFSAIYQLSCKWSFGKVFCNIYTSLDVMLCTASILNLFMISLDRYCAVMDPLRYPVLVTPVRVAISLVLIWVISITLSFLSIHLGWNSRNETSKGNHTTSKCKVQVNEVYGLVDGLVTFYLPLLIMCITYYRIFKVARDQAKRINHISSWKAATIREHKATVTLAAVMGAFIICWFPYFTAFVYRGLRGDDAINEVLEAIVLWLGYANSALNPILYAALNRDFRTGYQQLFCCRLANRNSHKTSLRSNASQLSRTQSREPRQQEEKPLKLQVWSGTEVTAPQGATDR
# [9] = target: T4, D(4) dopamine receptor (Homo sapiens, UniProt P21917)
# T4 sequence (P21917 whole entry): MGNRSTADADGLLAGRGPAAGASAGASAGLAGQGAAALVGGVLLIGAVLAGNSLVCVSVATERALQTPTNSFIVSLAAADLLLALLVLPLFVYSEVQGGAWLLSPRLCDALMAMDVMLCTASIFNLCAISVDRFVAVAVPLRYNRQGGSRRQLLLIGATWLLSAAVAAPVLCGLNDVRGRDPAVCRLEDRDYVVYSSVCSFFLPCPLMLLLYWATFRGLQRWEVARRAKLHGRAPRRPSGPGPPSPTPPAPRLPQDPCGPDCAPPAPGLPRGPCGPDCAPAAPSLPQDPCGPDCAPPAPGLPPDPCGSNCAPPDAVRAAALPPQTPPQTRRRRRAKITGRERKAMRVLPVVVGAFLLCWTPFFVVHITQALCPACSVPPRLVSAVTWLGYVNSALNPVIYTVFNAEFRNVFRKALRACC
# [10] = target: Neurotensin receptor type 1 (Homo sapiens, UniProt P30989)
# Sequence of Neurotensin receptor type 1 (P30989 whole entry): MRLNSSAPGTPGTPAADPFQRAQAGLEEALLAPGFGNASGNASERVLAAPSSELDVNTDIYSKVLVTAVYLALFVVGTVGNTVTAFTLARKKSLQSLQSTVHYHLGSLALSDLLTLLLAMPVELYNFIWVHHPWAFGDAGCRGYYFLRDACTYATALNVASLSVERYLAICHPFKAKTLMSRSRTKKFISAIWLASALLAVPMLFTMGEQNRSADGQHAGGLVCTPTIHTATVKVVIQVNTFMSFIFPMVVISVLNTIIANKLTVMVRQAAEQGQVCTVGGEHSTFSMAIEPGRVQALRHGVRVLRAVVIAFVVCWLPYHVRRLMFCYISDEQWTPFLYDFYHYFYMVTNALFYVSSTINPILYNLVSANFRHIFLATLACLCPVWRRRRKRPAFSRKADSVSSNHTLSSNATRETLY
# [11] = target: T5, Corticotropin-releasing factor receptor 1 (Homo sapiens, UniProt P34998)
# T5 sequence (P34998 whole entry): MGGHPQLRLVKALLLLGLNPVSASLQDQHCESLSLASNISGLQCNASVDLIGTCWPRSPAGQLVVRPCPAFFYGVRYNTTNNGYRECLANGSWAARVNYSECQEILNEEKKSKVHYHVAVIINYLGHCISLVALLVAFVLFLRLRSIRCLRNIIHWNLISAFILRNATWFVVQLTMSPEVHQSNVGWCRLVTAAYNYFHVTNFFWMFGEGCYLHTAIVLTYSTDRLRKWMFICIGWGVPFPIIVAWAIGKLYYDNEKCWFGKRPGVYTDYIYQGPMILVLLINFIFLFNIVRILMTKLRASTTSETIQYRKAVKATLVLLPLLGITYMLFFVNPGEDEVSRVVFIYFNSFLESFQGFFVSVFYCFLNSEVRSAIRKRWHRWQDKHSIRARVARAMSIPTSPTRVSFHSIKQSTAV
# Also: assay procedure not described here.
SMILES,AC50 [1] [µM],AC50 [2] [µM],AC50 [3] [µM],AC50 [4] [µM],AC50 [5] [µM],AC50 [6] [µM],AC50 [7] [µM],AC50 [8] [µM],AC50 [9] [µM],AC50 [10] [µM],AC50 [11] [µM]
C[C@@H](NCCCc1cccc(C(F)(F)F)c1)c1cccc2ccccc12,> 30,> 30,> 30,,,,,,,,
COc1ccc(CC2c3cc(OC)c(OC)cc3CC[N+]2(C)CCC(=O)OCCCCCOC(=O)CC[N+]2(C)CCc3cc(OC)c(OC)cc3C2Cc2ccc(OC)c(OC)c2)cc1OC (stereo not given),> 30,> 30,,,,,,,,,
CCN1CCN(Cc2ccc(Nc3ncc(F)c(-c4cc(F)c5nc(C)n(C(C)C)c5c4)n3)nc2)CC1 [ABEMACICLIB],> 30,> 30,> 30,> 30,> 30,,,,,,
CCCN(CCC)C(=O)Cc1c(-c2ccc(Cl)cc2)nc2ccc(Cl)cn12 [ALPIDEM],> 30,,> 10,,,> 10,> 10,> 10,> 10,,
COc1ccccc1Oc1c(NS(=O)(=O)c2ccc(C(C)(C)C)cc2)nc(-c2ncccn2)nc1OCCO [BOSENTAN],> 10,,,,,> 10,> 30,> 10,,> 30,> 30
COc1cc2nccc(Oc3ccc(NC(=O)C4(C(=O)Nc5ccc(F)cc5)CC4)cc3)c2cc1OC [CABOZANTINIB],> 30,> 30,> 30,> 30,> 30,,,,,,
CC(C(=O)O)c1ccc2c(c1)[nH]c1ccc(Cl)cc12 (stereo not given) [CARPROFEN],> 10,> 10,,,,,,,,,
O=C1CN(/N=C/c2ccc(-c3ccc([N+](=O)[O-])cc3)o2)C(O)=N1 [DANTROLENE],> 10,> 10,,,,,,,,,
CC(C)N(CCC(C(N)=O)(c1ccccc1)c1ccccn1)C(C)C (stereo not given) [DISOPYRAMIDE],> 10,,,,,,> 30,,,> 30,> 30
C[C@H]1c2cccc(O)c2C(=O)C2=C(O)[C@]3(O)C(=O)C(C(N)=O)=C(O)[C@@H](N(C)C)[C@@H]3[C@@H](O)[C@@H]21 [DOXYCYCLINE],,,,,,> 10,> 30,> 10,> 10,> 30,> 30
C[C@]12C=CC(=O)N[C@@H]1CC[C@@H]1[C@@H]2CC[C@]2(C)[C@@H](C(=O)Nc3cc(C(F)(F)F)ccc3C(F)(F)F)CC[C@@H]12 [DUTASTERIDE],> 10,> 10,,,,,,,,,
CN1C[C@H](C(=O)N[C@]2(C)O[C@@]3(O)[C@@H]4CCCN4C(=O)[C@H](Cc4ccccc4)N3C2=O)C=C2c3cccc4[nH]cc(c34)C[C@H]21 [ERGOTAMINE],,,> 30,> 30,> 30,,,,,,
CN(C)CCC[C@@]1(c2ccc(F)cc2)OCc2cc(C#N)ccc21 [ESCITALOPRAM],,,> 30,,,,,,,,
C#C[C@]1(O)CC[C@H]2[C@@H]3CCC4=CC(=O)CC[C@@H]4[C@H]3C(=C)C[C@@]21CC [ETONOGESTREL],> 30,> 30,,,,,,,,,
CC(C)Cc1ccc(C(C)C(=O)O)cc1 (stereo not given) [IBUPROFEN],,,,,,> 10,> 30,> 10,> 10,> 30,> 30
CN(CC1(C)CCCO1)S(=O)(=O)c1ccc(Cl)c(S(N)(=O)=O)c1 (stereo not given) [MEFRUSIDE],> 30,> 30,> 30,,,,,,,,
CC(=O)O[C@]1(C(C)=O)CC[C@H]2[C@@H]3C=C(C)C4=CC(=O)CC[C@@H]4[C@H]3CC[C@@]21C [NOMEGESTROL ACETATE],> 30,> 30,,,,,,,,,
C=C[C@H]1C[N@@]2CC[C@H]1C[C@@H]2[C@@H](O)c1ccnc2ccc(OC)cc12 [QUINIDINE],6.5,,,,,,,,,,
CO[C@H]1/C=C/O[C@@]2(C)Oc3c(C)c(O)c4c(O)c(c(/C=N/N5CCN(C)CC5)c(O)c4c3C2=O)NC(=O)/C(C)=C\C=C\[C@H](C)[C@H](O)[C@@H](C)[C@@H](O)[C@@H](C)[C@H](OC(C)=O)[C@@H]1C [RIFAMPIN],,,,,,> 10,21.6,> 10,> 10,> 30,> 30
CN(C)CCc1c[nH]c2ccc(Cn3cncn3)cc12 [RIZATRIPTAN],> 30,7.75,> 30,,,> 10,> 30,> 10,> 10,> 30,> 30
CC(C)c1nc(N(C)S(C)(=O)=O)nc(-c2ccc(F)cc2)c1/C=C/[C@@H](O)C[C@@H](O)CC(=O)O [ROSUVASTATIN],> 30,> 30,> 30,> 30,> 30,,,,,,
OC[C@H]1O[C@@](CO)(O[C@H]2O[C@H](CO)[C@@H](O)[C@H](O)[C@H]2O)[C@@H](O)[C@@H]1O [SUCROSE],> 30,> 30,> 30,> 30,> 30,,,,,,
Nc1ccc(S(=O)(=O)Nc2nccs2)cc1 [SULFATHIAZOLE],,,,,,> 10,> 30,> 10,> 10,> 30,> 30
CCN(CC)CCNC(=O)c1c(C)[nH]c(/C=C2\C(=O)Nc3ccc(F)cc32)c1C [SUNITINIB],4.37,,,,,,,,0.108,,
COc1cc2nc(N3CCN(C(=O)C4CCCO4)CC3)nc(N)c2cc1OC (stereo not given) [TERAZOSIN],,,,,,> 10,> 30,> 10,> 10,> 30,> 30
CC(S)C(=O)NCC(=O)O (stereo not given) [TIOPRONIN],> 30,> 30,> 30,> 30,> 30,,,,,,
C[C@H](CCC(=O)O)[C@H]1CC[C@H]2[C@@H]3[C@@H](O)C[C@@H]4C[C@H](O)CC[C@]4(C)[C@H]3CC[C@]12C [URSODIOL],> 30,> 30,> 30,> 30,> 30,,,,,,
CCCC(CCC)C(=O)O [VALPROIC ACID],,,,,,> 10,> 30,,> 10,> 30,> 30
